Measurements taken from article PMC4666032, “KPT-330, a potent and selective exportin-1 (XPO-1) inhibitor, shows antitumor effects modulating the expression of cyclin D1 and survivin in prostate cancer models” (BMC Cancer, 2015).

How the values were obtained:
Experiment in all cases: Growth/viability assay, IC50 at 72 h
Assay type in all cases: cell-based
PC3M-Ln4 = settings: Homo sapiens; PC3M-Ln4, Fig. 2g
Text: (§1) Four commercial (LnCaP, 22rv1, DU145 and PC3) and twelve non-commercial (LAPC-4 [44], CWR22, PCb2 [45], PC3Lymphnode, PC3M, PC3M-pro4 [46] and PC3M-Ln4 [47], LnCaP-104S [47], LnCaP104R1 [47], LnCaP-C81 [47], C4-2B [48], VCAP [49] and DuCaP [[49]) cell lines were selected for the in vitro experimental studies for their biological characteristics: LAPC-4 (Androgen receptor [AR] positive, androgen dependent with low Akt/mTOR activities, p53 wt); LnCaP (AR positive, androgen dependent with high Akt/mTOR activities, p53 wt); LnCaP-C81 and LnCaP-C4-2B (AR positive, androgen independent with high Akt/mTOR activities, p53 wt); 22rv1 (AR positive, androgen independent with low Akt/mTOR activities, p53 wt); PC3 (AR negative, with high Akt/mTOR activities and no p53 function (p53 del) and DU145 (AR negative, with low Akt/mTOR activities and mutant p53). PC3 and DU145 have been also transfected with AR to obtain PC3AR [50] and DU-AR [51]. Benign prostatic hyperplasia line (BPH1), and Prostatic epithelial lines (EPN and RWPE-1) were used as non-neoplastic controls. Cells were routinely cultured in appropriate medium supplemented with 10 % fetal bovine serum (FBS), 1 % pen-strep and 1 % L-glutamine (Invitrogen Corporation, Carlsbad, CA). To minimize the risk to work with misidentified and/or contaminated cell lines, DNA profiling was periodically carried out in-house to authenticate cell cultures. DNA was isolated from cell lines using a standard DNA isolation kit. STR profiling was performed by using GenePrint® 10 System (Promega Corporation, Madison, WI). An eight-capillary 3500 Genetic Analyzer (Applied Biosystems Life Technologies Europe BV, Monza, Italy) was used to separate and identify alleles using standard procedures. GenePrint® 10 System allows co-amplification and detection of […] human loci required by the guidelines ASN-0002. For non-commercial cell lines, the authentication process was carried out by comparing STR-fingerprints with those published by Adri van Bokhoven and co-workers. In addition, cell lines were stocked at very low passages and used at <15-20 subcultures.
(§2) Cells were seeded at a density of 2 x 10^4 cells/mL in 24-well plates. Cells were left to attach and grow in 5 % FCS DMEM for 24 h. After this time, cells were maintained in the appropriate culture conditions. Morphological controls were performed every day with an inverted phase-contrast photomicroscope (Nikon Diaphot, Tokyo, Japan) before cell trypsinization and counting. Cells were trypsinized and resuspended in 1.0 ml of saline, then counted using a NucleoCounter™ NC-100 (automated cell counter systems, Chemotec, Gydevang, Denmark). The effect on cell proliferation was measured by taking the mean cell number with respect to controls over time for the different treatment groups.
(§3) Viable cells were counted by using the NucleoCounter™ NC-100 (automated cell counter systems, Chemotec, Cydevang, DK). Apoptosis was evaluated by using Tali® Apoptosis Kit - Annexin V Alexa Fluor® 488 & Propidium Iodide-based, (Life Technologies Italia, Monza, Italy). Stained cells were then measured on a Tali® Image-Based Cytometer. Apoptosis was further confirmed by FACS analysis following the instructions of the manufacturer.
(§4) Six SINE analogs KPT-127, KPT-185, KPT-205, KPT-227, KPT251 and KPT-330 sharing a trifluoromethyl phenyl triazole scaffold, were investigated for their growth inhibitory and apoptotic potential in our PCa cell panel. Therefore, the effects of these XPO1 inhibitors were evaluated on the growth of PCa cell lines performing dose- and time-dependent studies. To examine the dose-dependent effects of these compounds, we treated cells with varying doses of the compounds (0, 1, 10, 50, 100, 500 and 1000 nM) and assessed viability at 72 hours after treatment. The IC50 for each compound was then calculated. […]

22rv1 = settings: Homo sapiens
Text: as §1, §2, §3, §4

LAPC-4 = settings: Homo sapiens
Text: as §1, §2, §3, §4

PC3 = settings: Homo sapiens, PC-3
Text: as §1, §2, §3, §4

PC3AR = settings: Homo sapiens, PC3/AR, Fig. 2g
Text: as §1, §2, §3, §4

LnCaP-104S = settings: Homo sapiens, Fig. 2g
Text: as §1, §2, §3, §4

LnCaP-C81 = settings: Homo sapiens; C-81, Fig. 2g
Text: as §1, §2, §3, §4

VCaP = settings: Homo sapiens, Fig. 2g
Text: as §1, §2, §3, §4

DU145 = settings: Homo sapiens, DU-145; DU145, Fig. 2g
Text: as §1, §2, §3, §4

LnCaP104R1 = settings: Homo sapiens; 104R1, Fig. 2g
Text: as §1, §2, §3, §4

CWR22 = settings: Homo sapiens; CWR22, Fig. 2g
Text: as §1, §2, §3, §4

PCb2 = settings: Homo sapiens; PCb2, Fig. 2g
Text: as §1, §2, §3, §4

BPH-1 = settings: Homo sapiens
Text: as §1, §2, §3, §4

DU-AR = settings: Homo sapiens, Fig. 2g
Text: as §1, §2, §3, §4

EPN = settings: Homo sapiens, Fig. 2g
Text: as §1, §2, §3, §4

PC3M-pro4 = settings: Homo sapiens; PC3M-pro4, Fig. 2g
Text: as §1, §2, §3, §4

DuCaP = settings: Homo sapiens, Fig. 2g
Text: as §1, §2, §3, §4

LnCaP = settings: Homo sapiens
Text: as §1, §2, §3, §4

RWPE-1 = settings: Homo sapiens; RWPE-1, Fig. 2g
Text: as §1, §2, §3, §4

C4-2B = settings: Homo sapiens, Fig. 2g
Text: as §1, §2, §3, §4

IC50 (PC3M-Ln4) [nM]	IC50 (22rv1; 22rv1, Fig. 2g) [nM]	IC50 (PC3; PC3, Fig. 2g) [nM]	IC50 (PC3AR) [nM]	IC50 (LnCaP-104S) [nM]	IC50 (LnCaP-C81) [nM]	IC50 (VCaP) [nM]	IC50 (DU145) [nM]	IC50 (LnCaP104R1) [nM]	IC50 (PC3M-pro4) [nM]	IC50 (LnCaP; Fig. 2g) [nM]	SMILES	IC50 (LAPC-4; LAPC4, LAPC-4, Fig. 2g) [nM]	IC50 (CWR22) [nM]	IC50 (PCb2) [nM]	IC50 (BPH-1; BPH-1, BPH1, Fig. 2g) [nM]	IC50 (BPH-1; BPH-1, 72 hours, Fig. 2a-f) [nM]	IC50 (DU-AR) [nM]	IC50 (EPN) [nM]	IC50 (DuCaP) [nM]	IC50 (RWPE-1) [nM]	also measured
210	361	300	260	200	240	440	360	270	355	257	FC(F)(F)c1cc(-c2ncn(/C=C\c3nnco3)n2)cc(C(F)(F)F)c1 [KPT-251]	628	480	320	> 1000	> 1000	300	1000	210	1000	IC50 (22rv1; 22rv1, 72 hours, Fig. 2a-f): 361 ± 59 nM; IC50 (LAPC-4; LAPC4, 72 hours, Fig. 2a-f): 628 ± 123 nM; IC50 (PC3; PC3, 72 hours, Fig. 2a-f): 380 ± 39 nM; IC50 (LnCaP; 72 hours, Fig. 2a-f): 257 ± 82 nM; IC50 (C4-2B): 200 nM
90	102	103	122	130	80	120	105	83	118	171	O=C(/C=C\n1cnc(-c2cc(C(F)(F)F)cc(C(F)(F)F)c2)n1)NNc1cnccn1 [KPT-330]	365	160	114	> 1000	> 1000	124	800	160	1000	IC50 (C4-2B): 66 nM
